Results reported in US20230107642A1 (Erasca, Inc., priority 2020, published 2023).

Biological target: T1, K-Ras G12C (Homo sapiens, UniProt P01116, G12C)
T1 construct: This protein contained 188 amino acids in total, including an N-terminal 6-Histidine tag; made in house; host or cells: E. coli BL21
Assay: CAF assay (% CAF; method in Example 7, not in this part)
Format: binding
Conditions: 10 uM compound, 1 h incubation

| SMILES | % CAF @ 10 uM, 1h |
| --- | --- |
| C=CC(=O)N1CCN(c2nc(=O)n3c4c(c(-c5ccc(F)cc5)c(Cl)cc24)SC[C@H](OC)C3)[C@@H](C)C1 [Example 528, (R)-8-((S)-4-acryloyl-2-methylpiperazin-1-yl)-10-chloro-11-(4-fluorophenyl)-3-methoxy-3,4-dihydro-2H,6H-[1,4]thiazepino[2,3,4-ij]quinazolin-6-one] | 98% |
| C=CC(=O)N1CCN(c2nc(=O)n3c4c(c(-c5cc(Cl)c(F)cc5F)c(Cl)cc24)SC[C@@H](OC)C3)[C@@H](C)C1 [Example 529, (3S)-8-((S)-4-acryloyl-2-methylpiperazin-1-yl)-10-chloro-11-(5-chloro-2,4-difluorophenyl)-3-methoxy-3,4-dihydro-2H,6H-[1,4]thiazepino[2,3,4-ij]quinazolin-6-one] | 95% |
| C=CC(=O)N1[C@H](C)CN(c2nc(=O)n3c4c(c(-c5cc(Cl)c(F)cc5F)c(Cl)cc24)SC[C@@H](OC)C3)C[C@@H]1C [Example 530, (3S)-8-((3S,5R)-4-acryloyl-3,5-dimethylpiperazin-1-yl)-10-chloro-11-(5-chloro-2,4-difluorophenyl)-3-methoxy-3,4-dihydro-2H,6H-[1,4]thiazepino[2,3,4-ij]quinazolin-6-one] | 92% |
| C=CC(=O)N1[C@H](C)CN(c2nc(=O)n3c4c(c(-c5ccc(F)cc5F)c(C(F)(F)F)cc24)SCC2(COC2)C3)C[C@@H]1C [Example 531, 8′-((3S,5R)-4-Acryloyl-3,5-dimethylpiperazin-1-yl)-11′-(2,4-difluorophenyl)-10′-(trifluoromethyl)-2′H,4′H,6′H-spiro[oxetane-3,3′-[1,4]thiazepino[2,3,4-ij]quinazolin]-6′-one] | 88.6% |
| C=CC(=O)N1CCN(c2nc(=O)n3c4c(c(-c5ccc(F)cc5)c(C(F)(F)F)cc24)SC[C@@H](OC)C3)[C@@H](C)C1 [Example 532, (S)-8-((S)-4-acryloyl-2-methylpiperazin-1-yl)-11-(4-fluorophenyl)-3-methoxy-10-(trifluoromethyl)-3,4-dihydro-2H,6H-[1,4]thiazepino[2,3,4-ij]quinazolin-6-one] | 97% |
| C=CC(=O)N1CCN(c2nc(=O)n3c4c(c(-c5cc(Cl)c(F)cc5F)c(C(F)(F)F)cc24)SC[C@H](OC)C3)[C@@H](C)C1 [Example 533, (3R)-8-((S)-4-acryloyl-2-methylpiperazin-1-yl)-11-(5-chloro-2,4-difluorophenyl)-3-methoxy-10-(trifluoromethyl)-3,4-dihydro-2H,6H-[1,4]thiazepino[2,3,4-ij]quinazolin-6-one] | 96% |
| C=CC(=O)N1CCN(c2nc(=O)n3c4c(c(-c5cc(Cl)c(F)cc5F)c(C(F)(F)F)cc24)SC[C@H](OC)C3)CC1 [Example 534, (3R)-8-(4-acryloylpiperazin-1-yl)-11-(5-chloro-2,4-difluorophenyl)-3-methoxy-10-(trifluoromethyl)-3,4-dihydro-2H,6H-[1,4]thiazepino[2,3,4-ij]quinazolin-6-one] | 97% |
| C=CC(=O)N1[C@H](C)CN(c2nc(=O)n3c4c(c(-c5cc(Cl)c(F)cc5F)c(C(F)(F)F)cc24)SC[C@H](OC)C3)C[C@@H]1C [Example 535, (3R)-8-((3S,5R)-4-acryloyl-3,5-dimethylpiperazin-1-yl)-11-(5-chloro-2,4-difluorophenyl)-3-methoxy-10-(trifluoromethyl)-3,4-dihydro-2H,6H-[1,4]thiazepino[2,3,4-ij]quinazolin-6-one] | 96% |
| C=CC(=O)N1CCN(c2nc(=O)n3c4c(c(-c5ccc(F)cc5)c(Cl)cc24)SC[C@@H](OC)C3)CC1 [Example 536, (S)-8-(4-acryloylpiperazin-1-yl)-10-chloro-11-(4-fluorophenyl)-3-methoxy-3,4-dihydro-2H,6H-[1,4]thiazepino[2,3,4-ij]quinazolin-6-one] | 97% |
| C=CC(=O)N1CCN(c2nc(=O)n3c4c(c(-c5ccc(F)cc5)c(Cl)cc24)SC[C@@H](OC)C3)[C@@H](C)C1 [Example 537, (S)-8-((S)-4-acryloyl-2-methylpiperazin-1-yl)-10-chloro-11-(4-fluorophenyl)-3-methoxy-3,4-dihydro-2H,6H-[1,4]thiazepino[2,3,4-ij]quinazolin-6-one] | 96% |
| C=CC(=O)N1CCN(c2nc(=O)n3c4c(c(-c5cc(Cl)c(F)cc5F)c(Cl)cc24)SC[C@H](OC)C3)CC1 [Example 538, (3R)-8-(4-acryloylpiperazin-1-yl)-10-chloro-11-(5-chloro-2,4-difluorophenyl)-3-methoxy-3,4-dihydro-2H,6H-[1,4]thiazepino[2,3,4-ij]quinazolin-6-one] | 97% |
| C=CC(=O)N1[C@H](C)CN(c2nc(=O)n3c4c(c(-c5cc(Cl)c(F)cc5F)c(C(F)(F)F)cc24)SC[C@@H](OC)C3)C[C@@H]1C [Example 539, (3S)-8-((3S,5R)-4-acryloyl-3,5-dimethylpiperazin-1-yl)-11-(5-chloro-2,4-difluorophenyl)-3-methoxy-10-(trifluoromethyl)-3,4-dihydro-2H,6H-[1,4]thiazepino[2,3,4-ij]quinazolin-6-one] | 96% |
| C=CC(=O)N1CCN(c2nc(=O)n3c4c(c(-c5ccc(F)cc5)c(Cl)cc24)SC[C@H](OC)C3)CC1 [Example 540, (R)-8-(4-acryloylpiperazin-1-yl)-10-chloro-11-(4-fluorophenyl)-3-methoxy-3,4-dihydro-2H,6H-[1,4]thiazepino[2,3,4-ij]quinazolin-6-one] | 98% |
| C=CC(=O)N1CCN(c2nc(=O)n3c4c(c(-c5cc(Cl)c(F)cc5F)c(Cl)cc24)SC[C@H](OC)C3)[C@@H](C)C1 [Example 541, (3R)-8-((S)-4-acryloyl-2-methylpiperazin-1-yl)-10-chloro-11-(5-chloro-2,4-difluorophenyl)-3-methoxy-3,4-dihydro-2H,6H-[1,4]thiazepino[2,3,4-ij]quinazolin-6-one] | 96% |
| C=CC(=O)N1[C@H](C)CN(c2nc(=O)n3c4c(c(-c5cc(Cl)c(F)cc5F)c(Cl)cc24)SC[C@H](OC)C3)C[C@@H]1C [Example 542, (3R)-8-((3S,5R)-4-acryloyl-3,5-dimethylpiperazin-1-yl)-10-chloro-11-(5-chloro-2,4-difluorophenyl)-3-methoxy-3,4-dihydro-2H,6H-[1,4]thiazepino[2,3,4-ij]quinazolin-6-one] | 96% |
| C=CC(=O)N1CCN(c2nc(=O)n3c4c(c(-c5cc(Cl)c(F)cc5F)c(Cl)cc24)SC[C@@H](OC)C3)CC1 [Example 543, (3S)-8-(4-acryloylpiperazin-1-yl)-10-chloro-11-(5-chloro-2,4-difluorophenyl)-3-methoxy-3,4-dihydro-2H,6H-[1,4]thiazepino[2,3,4-ij]quinazolin-6-one] | 97% |
| C=CC(=O)N1C[C@H](C)N(c2nc(=O)n3c4c(c(-c5ccc(F)cc5F)c(Cl)cc24)SC[C@@H]3CN2CCN(CC(F)F)CC2)C[C@H]1C [Example 550, (3S)-7-((2S,5R)-4-acryloyl-2,5-dimethylpiperazin-1-yl)-9-chloro-3-((4-(2,2-difluoroethyl)piperazin-1-yl)methyl)-10-(2,4-difluorophenyl)-2H-[1,4]thiazino[2,3,4-ij]quinazolin-5(3H)-one] | 91.6% |
| C=CC(=O)N1C[C@H](C)N(c2nc(=O)n3c4c(c(-c5ccc(F)cc5F)c(Cl)cc24)SC[C@@H]3CN2CCN(C3CC3)CC2)C[C@H]1C [Example 551, (3S)-7-((2S,5R)-4-acryloyl-2,5-dimethylpiperazin-1-yl)-9-chloro-3-((4-cyclopropylpiperazin-1-yl)methyl)-10-(2,4-difluorophenyl)-2H-[1,4]thiazino[2,3,4-ij]quinazolin-5(3H)-one] | 53.4% |
| C=CC(=O)N1C[C@H](C)N(c2nc(=O)n3c4c(c(-c5ccc(F)cc5)c(Cl)cc24)SC[C@@H]3COCCOC)C[C@H]1C [Example 558, (S)-7-((2S,5R)-4-acryloyl-2,5-dimethylpiperazin-1-yl)-9-chloro-10-(4-fluorophenyl)-3-((2-methoxyethoxy)methyl)-2H-[1,4]thiazino[2,3,4-ij]quinazolin-5(3H)-one] | 64.3% |
| C=CC(=O)N1[C@H](C)CN(c2nc(=O)n3c4c(c(-c5cc(Cl)c(F)cc5F)c(C(F)(F)F)cc24)SC[C@@H]3COC)C[C@@H]1C [Example 559, (3S)-7-((3S,5R)-4-acryloyl-3,5-dimethylpiperazin-1-yl)-10-(5-chloro-2,4-difluorophenyl)-3-(methoxymethyl)-9-(trifluoromethyl)-2H-[1,4]thiazino[2,3,4-ij]quinazolin-5(3H)-one] | 83.8% |
| C=CC(=O)N1[C@H](C)CN(c2nc(=O)n3c4c(c(-c5ccc(F)cc5F)c(C(F)(F)F)cc24)SC[C@@H]3CN2C[C@@H]3C[C@H]2CO3)C[C@@H]1C [Example 560, (3S)-3-(((1S,4S)-2-oxa-5-azabicyclo[2.2.1]heptan-5-yl)methyl)-7-((3S,5R)-4-acryloyl-3,5-dimethylpiperazin-1-yl)-10-(2,4-difluorophenyl)-9-(trifluoromethyl)-2,3-dihydro-5H-[1,4]thiazino[2,3,4-ij]quinazolin-5-one] | 95.6% |
| C=CC(=O)N1C[C@H](C)N(c2nc(=O)n3c4c(c(-c5ccc(F)cc5F)c(C(F)(F)F)cc24)SC[C@@H]3CN2CCN(CC#N)CC2)C[C@H]1C [Example 561, 2-(4-(((3S)-7-((2S,5R)-4-acryloyl-2,5-dimethylpiperazin-1-yl)-10-(2,4-difluorophenyl)-5-oxo-9-(trifluoromethyl)-3,5-dihydro-2H-[1,4]thiazino[2,3,4-ij]quinazolin-3-yl)methyl)piperazin-1-yl)acetonitrile] | 10.4% |
| C=CC(=O)N1C[C@H](C)N(c2nc(=O)n3c4c(c(-c5ccc(F)cc5F)c(C(F)(F)F)cc24)SC[C@@H]3CN2CCN(CC(F)F)CC2)C[C@H]1C [Example 562, (3S)-7-((2S,5R)-4-acryloyl-2,5-dimethylpiperazin-1-yl)-3-((4-(2,2-difluoroethyl)piperazin-1-yl)methyl)-10-(2,4-difluorophenyl)-9-(trifluoromethyl)-2H-[1,4]thiazino[2,3,4-ij]quinazolin-5(3H)-one] | 83.6% |
